Like-named read-outs stand apart in the source and are kept apart here. Each block holds one compound with its values, some of them ahead of it.
Key:
[1] = target: T1, Keap1 Kelch domain (321-609) / TAMRA-labeled 16mer NRF2 peptide (ETGE motif) (Homo sapiens, UniProt Q14145); assay: NRF2-Keap1 FP Assay (Keap1 Kelch fluorescence polarization); format: binding; conditions: 20 nM Keap1 (321-609), 8 nM Tamra labeled peptide
T1 construct: the Kelch domain (321-609) of Keap1 is used
How it was run: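 Compound dilutions (3-fold) were incubated 1 hr at room temperature with 20 nM Keap1 Kelch (321-609) and 8 nM TAMRA-labeled ETGE 16mer peptide. Buffer was 50 mM Tris pH 8.0, 100 mM NaCl, 5 mM MgCl2, 1 mM DTT, 2 mM CHAPS, 0.005% BSA. Fluorescence polarization (mP) was normalized to controls and fitted with a four-parameter equation to give pIC50.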

[2] = target: T2, full length Keap1 protein / full length NRF2 protein (Homo sapiens, UniProt Q14145); assay: NRF2-Keap1 TR-FRET Assay; format: binding; conditions: 25 nM Keap1-FlagHis and 50 nM biotin-NRF2 added
T2 construct: full length NRF2 protein and full length Keap1 protein (Keap1 exists a dimer) are used; His
T2 sequence (Q14145 whole entry): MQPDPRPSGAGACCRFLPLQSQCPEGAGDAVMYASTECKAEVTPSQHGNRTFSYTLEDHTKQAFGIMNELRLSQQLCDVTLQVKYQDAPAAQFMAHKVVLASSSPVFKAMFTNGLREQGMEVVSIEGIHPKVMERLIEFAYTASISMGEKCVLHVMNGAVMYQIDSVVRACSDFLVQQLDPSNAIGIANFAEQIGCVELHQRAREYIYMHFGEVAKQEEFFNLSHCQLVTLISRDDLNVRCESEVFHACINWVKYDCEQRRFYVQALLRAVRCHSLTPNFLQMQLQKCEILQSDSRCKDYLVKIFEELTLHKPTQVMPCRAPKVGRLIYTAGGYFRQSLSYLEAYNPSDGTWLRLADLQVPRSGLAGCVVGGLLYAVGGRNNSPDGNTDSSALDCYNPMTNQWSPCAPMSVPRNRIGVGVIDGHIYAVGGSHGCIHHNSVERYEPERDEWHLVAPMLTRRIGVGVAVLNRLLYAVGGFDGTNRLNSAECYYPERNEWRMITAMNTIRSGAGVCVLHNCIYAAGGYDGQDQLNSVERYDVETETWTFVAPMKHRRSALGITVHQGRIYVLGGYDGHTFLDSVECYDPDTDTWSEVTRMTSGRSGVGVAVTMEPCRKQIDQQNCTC
How it was run: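 Displacement of biotinylated full-length NRF2 from full-length Keap1 read by Eu/APC TR-FRET (665/615 nm) after 1 h detection at RT. Compound, 3-fold series, first incubated with Keap1 at 37 °C for 2.25 h, NRF2 then added at 4 °C for 1.25 h; pIC50 by four-parameter equation.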

[3] = system: NQO1 specific enzyme activity in BEAS-2B cells (marker for NRF2 activation); assay: BEAS-2B NQO1 MTT Assay; format: cell-based; conditions: Homo sapiens, compound incubated 48 hours, read-out: EC50 (NQO1 specific enzyme activity induction)
How it was run: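 NQO1 specific activity induction is derived from the rate of MTT reduction (ΔOD/min, 570 nm, 30 min kinetic read) in crude lysates of BEAS-2B cells exposed to compound for 48 h. A 3-parameter fit gives EC50, reported as pEC50; part of each lysate goes to Cell Titer Glo.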

T1 sequence (Q14145 321-609): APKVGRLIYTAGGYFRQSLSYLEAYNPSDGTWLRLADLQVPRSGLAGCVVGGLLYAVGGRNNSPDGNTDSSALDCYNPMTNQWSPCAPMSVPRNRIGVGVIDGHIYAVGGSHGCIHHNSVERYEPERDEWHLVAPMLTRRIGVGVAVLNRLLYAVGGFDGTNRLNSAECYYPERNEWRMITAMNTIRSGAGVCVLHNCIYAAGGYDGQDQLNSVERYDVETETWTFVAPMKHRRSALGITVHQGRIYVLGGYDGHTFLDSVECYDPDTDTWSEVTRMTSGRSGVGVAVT

IC50 [1]: 0.1 to 1 µM | IC50 [2]: 1 to 10 µM
SMILES: CCCC(COc1cccc(-c2cccc(-n3ncc(C(=O)O)c3C3CC3c3cn(C)nn3)c2)c1)C1CCCCC1 (stereo not drawn) [Example 172, 1-(3′-((2-Cyclohexylpentyl)oxy)-[1,1′-biphenyl]-3-yl)-5-(2-(1-methyl-1H-1,2,3-triazol-4-yl)cyclopropyl)-1H-pyrazole-4-carboxylic acid]
EC50 [3]: 0.1 to 1 µM

IC50 [1]: 0.01 to 0.1 µM | IC50 [2]: 0.1 to 1 µM
SMILES: CC(COc1cccc(-c2cccc(-n3ncc(C(=O)O)c3C3CC3c3cn(C)nn3)c2)c1)C1CCCCC1 (stereo not drawn) [Example 173, 1-(3′-(2-Cyclohexylpropoxy)-[1,1′-biphenyl]-3-yl)-5-(2-(1-methyl-1H-1,2,3-triazol-4-yl)cyclopropyl)-1H-pyrazole-4-carboxylic acid]
EC50 [3]: 0.01 to 0.1 µM

IC50 [1]: 0.01 to 0.1 µM | IC50 [2]: 0.1 to 1 µM
SMILES: Cn1cc(C2CC2c2c(C(=O)O)cnn2-c2cccc(-c3cccc(OCC4CCOCC4)c3)c2)nn1 (stereo not drawn) [Example 174, 5-(2-(1-Methyl-1H-1,2,3-triazol-4-yl)cyclopropyl)-1-(3′-((tetrahydro-2H-pyran-4-yl)methoxy)-[1,1′-biphenyl]-3-yl)-1H-pyrazole-4-carboxylic acid]
EC50 [3]: 1 to 10 µM

IC50 [1]: 0.01 to 0.1 µM | IC50 [2]: 0.1 to 1 µM
SMILES: Cn1cc(C2CC2c2c(C(=O)O)cnn2-c2cccc(-c3cccc(OCC4CCCCO4)c3)c2)nn1 (stereo not drawn) [Example 175, 5-(2-(1-Methyl-1H-1,2,3-triazol-4-yl)cyclopropyl)-1-(3′-((tetrahydro-2H-pyran-2-yl)methoxy)-[1,1′-biphenyl]-3-yl)-1H-pyrazole-4-carboxylic acid]
EC50 [3]: 1 to 10 µM

IC50 [1]: > 10 µM | IC50 [2]: 10 to 100 µM
SMILES: Cn1cc(C2CC2c2c(C(=O)O)cnn2-c2cc(C#N)cc(-c3cccc(OCC4CCCCC4)c3)c2)nn1 (stereo not drawn) [Example 189, 1-(5-cyano-3′-(cyclohexylmethoxy)-[1,1′-biphenyl]-3-yl)-5-(2-(1-methyl-1H-1,2,3-triazol-4-yl)cyclopropyl)-1H-pyrazole-4-carboxylic acid]
EC50 [3]: 1 to 10 µM

IC50 [1]: 1 to 10 µM | IC50 [2]: 10 to 100 µM
SMILES: Cn1cnc(C2CC2c2c(C(=O)O)cnn2-c2cccc(-c3cccc(OCC4CCCCC4)c3)c2)c1 (stereo not drawn) [Example 190, 1-(3′-(cyclohexylmethoxy)-[1,1′-biphenyl]-3-yl)-5-(2-(1-methyl-1H-imidazol-4-yl)cyclopropyl)-1H-pyrazole-4-carboxylic acid]
EC50 [3]: 1 to 10 µM

Continued, compound first:

SMILES: CC(C)Oc1cccc(-c2cccc(-n3ncc(C(=O)O)c3C3CC3c3cn(C)nn3)c2)c1F (stereo not drawn) [Example 181, 1-(2′-Fluoro-3′-isopropoxy-[1,1′-biphenyl]-3-yl)-5-(2-(1-methyl-1H-1,2,3-triazol-4-yl)cyclopropyl)-1H-pyrazole-4-carboxylic acid]
IC50 [1]: 0.1 to 1 µM | IC50 [2]: 1 to 10 µM | EC50 [3]: 1 to 10 µM

SMILES: CCOC(c1cccc(-c2cccc(-n3ncc(C(=O)O)c3C3CC3c3cn(C)nn3)c2)c1)C(C)C (stereo not drawn) [Example 182, 1-(3′-(1-Ethoxy-2-methylpropyl)-[1,1′-biphenyl]-3-yl)-5-(2-(1-methyl-1H-1,2,3-triazol-4-yl)cyclopropyl)-1H-pyrazole-4-carboxylic acid]
IC50 [1]: 0.01 to 0.1 µM | IC50 [2]: 0.1 to 1 µM | EC50 [3]: 0.1 to 1 µM

SMILES: COC(c1cccc(-c2cccc(-n3ncc(C(=O)O)c3C3CC3c3cn(C)nn3)c2)c1)C(C)C (stereo not drawn) [Example 184, 1-(3′-(1-Methoxy-2-methylpropyl)-[1,1′-biphenyl]-3-yl)-5-(2-(1-methyl-1H-1,2,3-triazol-4-yl)cyclopropyl)-1H-pyrazole-4-carboxylic acid]
IC50 [1]: 0.01 to 0.1 µM | IC50 [2]: 0.1 to 1 µM | EC50 [3]: 0.1 to 1 µM

SMILES: CCC[C@@H]1CCCCN1C(=O)c1cc(F)cc(-c2cccc(-n3ncc(C(=O)O)c3C3CC3c3cn(C)nn3)c2)c1 (stereo partly drawn) [Example 198, 1-(3′-Fluoro-5′-((R)-2-propylpiperidine-1-carbonyl)-[1,1′-biphenyl]-3-yl)-5-(2-(1-methyl-1H-1,2,3-triazol-4-yl)cyclopropyl)-1H-pyrazole-4-carboxylic acid]
IC50 [1]: 0.01 to 0.1 µM | IC50 [2]: 0.01 to 0.1 µM | EC50 ([3]; BEAS-2B, 48 h): 0.1 to 1 µM

SMILES: CCC[C@@H]1CCCCN1C(=O)c1cccc(-c2cccc(-n3nc(C)c(C(=O)O)c3C3CC3)c2)c1 [Example 203, (R)-5-Cyclopropyl-3-methyl-1-(3′-(2-propylpiperidine-1-carbonyl)-[1,1′-biphenyl]-3-yl)-1H-pyrazole-4-carboxylic acid]
IC50 [1]: 1 to 10 µM | IC50 [2]: 1 to 10 µM | EC50 [3]: 1 to 10 µM

SMILES: O=C(O)c1cnn(-c2cccc(-c3cccc(-n4ncc5c4C(C4CC4)CC5)c3)c2)c1C1CC1 (stereo not drawn) [Example 207, 5-Cyclopropyl-1-(3′-(6-cyclopropyl-5,6-dihydrocyclopenta[c]pyrazol-1(4H)-yl)-[1,1′-biphenyl]-3-yl)-1H-pyrazole-4-carboxylic Acid]
IC50 [1]: 0.1 to 1 µM | IC50 [2]: 1 to 10 µM | EC50 [3]: 1 to 10 µM

SMILES: Cc1nc(-c2cccc(-c3cccc(-n4ncc(C(=O)O)c4C4CC4)c3)c2)no1 [Example 211, 5-Cyclopropyl-1-(3′-(5-methyl-1,2,4-oxadiazol-3-yl)-[1,1′-biphenyl]-3-yl)-1H-pyrazole-4-carboxylic acid]
IC50 [1]: > 10 µM | IC50 [2]: 10 to 100 µM | EC50 [3]: 1 to 10 µM

SMILES: Cn1cc(C2CC2c2c(C(=O)O)cnn2-c2cccc(-c3cccc(C(O)C4CCCCC4)c3)c2)nn1 (stereo not drawn) [Example 220, 1-(3′-(Cyclohexyl(hydroxy)methyl)-[1,1′-biphenyl]-3-yl)-5-(2-(1-methyl-1H-1,2,3-triazol-4-yl)cyclopropyl)-1H-pyrazole-4-carboxylic acid]
IC50 [1]: 0.01 to 0.1 µM | IC50 [2]: 0.1 to 1 µM | EC50 [3]: 1 to 10 µM

Source: US10364256B2 (GlaxoSmithKline Intellectual Property Development Limited, priority 2015, dated 2019)
